Experimental data as given in patent US20060008855A1, “Promiscuous G-protein compositions and their use” (Invitrogen Corporation, a Delaware corporation, priority 1996, published 2006).
Where “and” joins values, the source holds several entries; their conditions need not be identical. Equal entries are not always repeated.

Assays:
β-lactamase = β-lactamase cleavage of CCF2 in phosphate buffer, emission spectrum; assay type: biochemical; conditions: 50 mmolar phosphate buffer pH 7.0, excitation 405 nm
Description: The emission spectrum of compound CCF2 in 50 mmolar phosphate buffer pH 7.0 before and after β-lactamase cleavage of the β-lactam ring. In the intact substrate, efficient energy transfer occurs from the 7-hydroxycoumarin moiety to the fluorescein moiety. Excitation of the substrate at 405 nm results in fluorescence emission at 515 nm (green) from the acceptor dye fluorescein. The energy transfer is disrupted when β-lactamase cleaves the β-lactam ring, thereby severing the link between the two dyes. Excitation of the products at 405 nm now results entirely in donor fluorescence emission at 448 nm (blue). The fluorescence emission from the donor moiety increases 25 fold upon β-lactam cleavage. The fluorescence at 515 nm is reduced by 3.5-fold, all of the remaining fluorescence originating from the 7-hydroxycoumarin as its emission spectrum extends into the green. Twenty-five-fold quenching of the donor in the substrate is equivalent to an efficiency of fluorescence energy transfer of 96%. This large fluorescence change upon β-lactam cleavage can readily be used to detect β-lactamase in the cytoplasm of living mammalian cells.

RTEM β-lactamase [1] = biological target: T1, RTEM β-lactamase (Escherichia coli, UniProt P62593); assay: Pixel intensities of CCF2 loaded CHO cells transiently transfected with RTEM β-lactamase gene; assay type: cell-based; set-up: expressed in transfected cells; host or cells: CHO, transiently transfected; conditions: for pixel intensity, coumarin emission filter: 450 DF 65 filter
T1 sequence (P62593 24-286 limits assumed): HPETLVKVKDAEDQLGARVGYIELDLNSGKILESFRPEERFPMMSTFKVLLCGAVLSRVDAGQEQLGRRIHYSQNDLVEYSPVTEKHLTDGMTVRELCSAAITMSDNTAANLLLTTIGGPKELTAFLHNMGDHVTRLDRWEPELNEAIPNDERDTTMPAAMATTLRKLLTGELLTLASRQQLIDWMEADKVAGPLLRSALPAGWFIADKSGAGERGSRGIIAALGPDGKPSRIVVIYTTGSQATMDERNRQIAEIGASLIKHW
Description: (§1) Cells from cell lines of various mammalian origin were transiently transfected with a plasmid containing the RTEM β-lactamase gene under the control of a mammalian promoter. […] D. 1.10 to 48 hours after transfection cells were exposed to 5 micromolar CCF2/ac2AM2 for 1 to 6 hours. […] To quantitate the fluorescence measurements the cells were first viewed through coumarin (450 DF 65) and then fluorescein (515 EFLP) emission filters and pictures were recorded with a charge couple device camera. The average pixel intensities of CCF2 loaded transfected cells (blue) and controls (green) at coumarin and fluorescein wavelength in COS-7 (Table 2) and CHO (Table 3) cells are summarized; values for 4 representative cells for each population are given.

RTEM β-lactamase [2] = biological target: T1, RTEM β-lactamase; assay: Pixel intensities of CCF2 loaded COS-7 cells transiently transfected with RTEM β-lactamase gene; assay type: cell-based; set-up: expressed in transfected cells; host or cells: COS-7, transiently transfected; conditions: for pixel intensity, coumarin emission filter: 450 DF 65 filter
Description: as §1

NFAT promoter = NFAT promoter β-lactamase reporter gene assay in Jurkat T lymphocytes; assay type: cell-based
Description: These examples employ Jurkat T lymphocytes that were transfected with a genetic construct that expresses a reporter gene. The genetic construct includes a NFAT promoter, which is responsive to increased calcium levels and protein kinase C activation that result from activation of Gα protein. The NFAT promoter was operably linked to a β-lactamase reporter gene. To detect expression of the reporter gene, and thereby detect activation of Gα, the cells were contacted with the β-lactamase substrate CCF2ac2/AM2 (described herein), and fluorescence emission was detected according to previously described methods (Tsien et al., 1993, Trends in Cell Biology 3:242-245).
Two different compounds, ionomycin and phorbol myristate acetate (PMA), were used to optimize detection of expression of the reporter gene in these examples. In the first example, the dose response to ionomycin was measured. In this example, a set of samples of cells were contacted with PMA (at 3 nM) and the calcium ionophore ionomycin (at various concentrations, ranging from 0 to 3.0 μM). […]
In practicing these methods, it is preferable to add the ionophore to a level that is just below the threshold level for activation of the calcium-responsive promoter (e.g., the NFAT promoter). […] As is illustrated in FIG. 4A, fluorescence emission from a sample of the aforementioned cells can be measured by FRET. In this example, fluorescence emission was measured approximately 90 minutes after stimulation. Because the fluorogenic β-lactamase substrate undergoes a shift in fluorescence emission, fluorescence emission is measured as an emission ratio (450/530) when exciting at 400 nm. […]
In a second example, the dose response of PMA required to stimulate NFAT-driven expression was measured. […] As above, fluorescence emission was measured 90 minutes after stimulation. […]

Gα15 or Gα16 expression = assay: Doxycyclin-inducible expression of Gα15 or Gα16 in COS-7 cells, Western blot; assay type: cell-based; conditions: COS-7 clones, tet operator/CMV promoter; doxycyclin 3 g/ml
Description: The data summarized herein indicate that, although cells may not tolerate constitutive expression of promiscuous Gα proteins at high levels, they can tolerate expression of promiscuous Gα proteins from an inducible promoter. In this case, the genes for Gα15 and Gα16 were placed under the control of a cytomegalovirus (CMV) promoter that was operably linked to a heptamerized tet operator (Gossen and Bujard, 1992, Proc. Natl. Acad. Sci. 89:5547-5551). The plasmid encoding Gα and; the plasmid encoding Gα16 are identical, except sequences encoding Gα16 in lieu of Gα15. These plasmids were used to transfect COS-7 cells. These cells were co-transfected with a tetracyclin-dependent transactivator, rtTA, that is operably linked to a CMV promoter of a plasmid that carries a neomycin resistance gene (Gossen et al., 1995, Science 268:1766-1769).
Expression of the Gα genes was induced by contacting the cells with doxycyclin, a tetracyclin analog. In these experiments, the doxycyclin concentration was […], although doxycyclin concentrations ranging from […] can be used in order to regulate the level of gene expression. […] FIG. 3 illustrates that, in the presence of doxycyclin, expression of Gα15 or Gα16 is detectable as a band of approximately 43 kDa. […]

Question: O=C(CNC(=O)c1cc2cc(Cl)c(O)cc2oc1=O)N[C@@H]1C(=O)N2C(C(=O)O)=C(CSc3ccc4c(c3)C(=O)OC43c4ccc(O)cc4Oc4cc(O)ccc43)CS[C@H]12 [CCF2] was tested. Which “reduction of fluorescence at 515 nm upon β-lactam cleavage” value (β-lactamase) did it give?
Answer: 3.5 fold

Question: What about the “increase of fluorescence emission from the donor moiety upon β-lactam cleavage” value (β-lactamase; emission 448 nm) of the same compound?
Answer: 25 fold

Question: What about the “pixel intensity, coumarin emission filter” value (RTEM β-lactamase [1]; blue cell (transfected)) of the same compound?
Answer: 98 and 70 and 76 and 56

Question: And the “pixel intensity, Fluorescein emission filter” value (RTEM β-lactamase [1]; blue cell (transfected), 515 EFLP filter)?
Answer: 112 and 113 and 92 and 67

Question: What about the “pixel intensity, coumarin emission filter” value (RTEM β-lactamase [1]; green cell (control)) of the same compound?
Answer: 9 and 7

Question: What about the “pixel intensity, coumarin emission filter” value (RTEM β-lactamase [2]; COS-7, blue cell (transfected)) of the same compound?
Answer: 22 and 27 and 34 and 31

Question: And the “pixel intensity, Fluorescein emission filter” value (RTEM β-lactamase [2]; COS-7, blue cell (transfected), 515 EFLP filter)?
Answer: 33 and 20 and 23 and 31

Question: What about the “pixel intensity, coumarin emission filter” value (RTEM β-lactamase [2]; COS-7, green cell (control)) of the same compound?
Answer: 4 and 5 and 3

Question: Which “effect on fluorescence emission from the cell sample” value (NFAT promoter; 0 to 30 nM with 1 μM ionomycin, 90 minutes after stimulation) does the source give for CCCCCCCCCCCCCC(=O)O[C@@H]1[C@@H](C)[C@@]2(O)[C@@H](C=C(CO)C[C@]3(O)C(=O)C(C)=C[C@@H]23)[C@@H]2C(C)(C)[C@]12OC(C)=O [PMA, phorbol myristate acetate] here?
Answer: increased fluorescence emission

Question: What about the “concentration preferable for enhancing detection of expression of a reporter gene” value (NFAT promoter; with 1 μM ionomycin, 90 minutes after stimulation) of the same compound?
Answer: approximately 3 nM

Question: For C[C@H]1c2cccc(O)c2C(O)=C2C(=O)[C@]3(O)C(O)=C(C(N)=O)C(=O)[C@@H](N(C)C)[C@@H]3[C@@H](O)[C@@H]21 [doxycyclin], which “Gα proteins produced upon induction of gene expression” value (Gα15 or Gα16 expression) is on record?
Answer: Up to 10,000 Gα proteins/cell

Question: C[C@H](CCC(=O)O)C[C@H](C)C[C@H](C)C(=O)/C=C(\O)[C@H](C)C[C@H](C)C/C=C/[C@@H](C)[C@@H](O)[C@@H](C)[C@@H](O)C[C@@H]1CC[C@@](C)([C@H]2CC[C@@](C)([C@@H](C)O)O2)O1 [ionomycin] was tested. Which “concentration raising intracellular calcium to just below the threshold level for activation of the calcium-responsive promoter” value (NFAT promoter; with PMA at 3 nM, emission ratio 450/530, about 90 minutes after stimulation) did it give?
Answer: approximately 0.3 μM
